Source: publication PMC12084297, “Cytoplasmic connexin43-microtubule interactions promote glioblastoma stem-like cell maintenance and tumorigenicity” (Cell Death & Disease, 2025)

Legend:
VTC-037 GSCs = assay: MTS viability, VTC-037 GSCs; format: cell-based, human; conditions: VTC-037 adherent GSCs, TMZ 50 μM, 4 days
Description: (§1) Cells were plated in 96-well plates (2000–5000 cells per well) and treated the following day with TMZ (10, 50, or 100 μM), antennapedia, JM2-scrambled, or JM2 (10, 50, or 100 μM). After 4 days, cell viability was monitored following addition of MTS reagent (Promega) according to manufacturer’s instructions. The absorbance at 490 nm was measured using a SpectraMax i3 or iD3 microplate reader (Molecular Devices). For the caspase 3/7 activity assay, cells were plated in 96-well plates (2000 cells per well) and treated with TMZ or peptides as described above. The activity of caspase 3/7 was measured after 48 h using the Caspase-Glo® 3/7 assay (Promega) following the manufacturer’s instructions. Fold change of caspase 3/7 activity was defined as the ratio of caspase 3/7 luminescence in treated cells compared to controls.

VTC-001 GSCs = assay: MTS viability, VTC-001 GSCs; format: cell-based, human; conditions: VTC-001 adherent GSCs, TMZ 50 μM, 4 days
Description: as §1

[1] = tested on: newly diagnosed GBM patients; conditions: surgical resection, radiotherapy, and chemotherapy with temozolomide, ref [1]-[3]; cited from earlier work
From the text: Glioblastoma (GBM) is a highly malignant and lethal cancer of the central nervous system. The current multimodal therapy for newly diagnosed GBM patients includes surgical resection, radiotherapy, and chemotherapy with temozolomide (TMZ), conferring a median survival of only 14.6 months, with recent results from phase 3 clinical trials showing an extension up to 20 months, although using more stringent inclusion criteria that limit generalizability.

VTC-034 GSCs = assay: Caspase 3/7 activity, VTC-034 GSCs; format: cell-based, human; conditions: VTC-034 adherent GSCs, 10, 50 or 100 μM, 48 h, Caspase-Glo 3/7
Description: as §1

Structure (SMILES): Cn1nnc2c(C(N)=O)ncn2c1=O [TMZ, temozolomide, reference compound]
- GSC viability with TMZ alone (MTS) (VTC-037 GSCs): resistant to TMZ treatment
- GSC viability with TMZ alone (MTS) (VTC-001 GSCs): resistant to TMZ treatment
- Median survival [1]: 14.6 months
- Apoptosis induction (caspase 3/7 activity) (VTC-034 GSCs): inefficient in inducing apoptosis
